From publication PMC9500072, “Topical application of an irreversible small molecule inhibitor of lysyl oxidases ameliorates skin scarring and fibrosis” (Nature Communications, 2022)
Like-named read-outs stand apart in the source and are kept apart here.

Tests used:
Format in all cases: biochemical
Dog Recombinant LOXL2 = biological target: T1, Dog Recombinant LOXL2 (Canis lupus familiaris, UniProt A0A8I3P9Y5); test: Amine oxidase inhibition profile, dog LOXL2
T1 construct: made in house; host or cells: HEK-293 clones (provided by Dr. Fernando Rodríguez Pascual)
T1 sequence (A0A8I3P9Y5 1-777): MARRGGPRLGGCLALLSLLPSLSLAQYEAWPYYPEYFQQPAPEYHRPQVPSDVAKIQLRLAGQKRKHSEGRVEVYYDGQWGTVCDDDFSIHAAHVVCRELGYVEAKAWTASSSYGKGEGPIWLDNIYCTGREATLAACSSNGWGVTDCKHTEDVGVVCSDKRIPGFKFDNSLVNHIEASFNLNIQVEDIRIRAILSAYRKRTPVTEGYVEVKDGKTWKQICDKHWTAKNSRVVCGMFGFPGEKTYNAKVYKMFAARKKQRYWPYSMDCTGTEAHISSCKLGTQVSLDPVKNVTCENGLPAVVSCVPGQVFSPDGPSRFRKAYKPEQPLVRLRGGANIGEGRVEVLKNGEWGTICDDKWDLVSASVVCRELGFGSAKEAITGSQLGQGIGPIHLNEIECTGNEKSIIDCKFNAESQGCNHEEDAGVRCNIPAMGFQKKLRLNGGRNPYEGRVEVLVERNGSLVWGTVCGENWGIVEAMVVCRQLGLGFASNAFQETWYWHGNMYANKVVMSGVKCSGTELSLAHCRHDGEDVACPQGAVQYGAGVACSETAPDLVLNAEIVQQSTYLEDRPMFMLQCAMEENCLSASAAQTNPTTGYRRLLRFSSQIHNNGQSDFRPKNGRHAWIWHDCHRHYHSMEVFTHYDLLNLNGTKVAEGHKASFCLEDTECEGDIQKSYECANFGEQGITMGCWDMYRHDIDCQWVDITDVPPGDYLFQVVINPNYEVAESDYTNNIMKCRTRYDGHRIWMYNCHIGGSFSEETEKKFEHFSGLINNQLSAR

Human recombinant LOXL2 = biological target: T2, Human recombinant LOXL2 (Homo sapiens, UniProt Q9Y4K0); test: Amplex Red oxidation assay, LOXL2 inhibition
T2 construct: purchased R&D Systems
T2 sequence (Q9Y4K0 26-774): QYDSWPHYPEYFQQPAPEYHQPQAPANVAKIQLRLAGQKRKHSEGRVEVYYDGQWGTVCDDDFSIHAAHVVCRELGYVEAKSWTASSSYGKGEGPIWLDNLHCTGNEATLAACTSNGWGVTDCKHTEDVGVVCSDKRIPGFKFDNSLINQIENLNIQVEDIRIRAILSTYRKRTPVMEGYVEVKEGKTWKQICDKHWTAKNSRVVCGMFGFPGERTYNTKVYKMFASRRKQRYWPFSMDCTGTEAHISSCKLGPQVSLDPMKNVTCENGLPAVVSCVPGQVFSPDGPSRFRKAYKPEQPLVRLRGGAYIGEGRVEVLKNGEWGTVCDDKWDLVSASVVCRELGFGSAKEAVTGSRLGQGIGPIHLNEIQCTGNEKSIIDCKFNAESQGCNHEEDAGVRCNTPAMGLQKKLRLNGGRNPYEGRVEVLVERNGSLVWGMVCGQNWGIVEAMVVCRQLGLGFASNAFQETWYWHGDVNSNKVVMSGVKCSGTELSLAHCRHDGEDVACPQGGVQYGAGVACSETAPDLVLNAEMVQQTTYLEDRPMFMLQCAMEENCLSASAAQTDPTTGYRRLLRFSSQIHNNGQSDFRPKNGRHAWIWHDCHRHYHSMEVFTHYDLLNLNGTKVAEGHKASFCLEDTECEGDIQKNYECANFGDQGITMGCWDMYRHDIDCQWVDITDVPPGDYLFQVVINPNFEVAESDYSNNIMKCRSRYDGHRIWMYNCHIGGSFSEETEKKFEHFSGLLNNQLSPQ
Description: For compound oxidation assays, the amount of hydrogen peroxide generated at a single concentration (30 µM) of compound relative to DMSO was measured.
The measurement of the enzymatic activity of all lysyl oxidase family members was based on the detection of hydrogen peroxide with an Amplex-Red oxidation assay, as previously described; miniaturized in 384 well formats, with the appropriate combination of substrate and assay buffer for each individual enzyme. After a 30 min pre-incubation of the enzyme at 37 °C with the test compound (or with different incubation times for the time-dependency assay), one volume of reaction mixture containing 120 μM Amplex Red (AR) (Life Technologies), 1.5 U/mL horseradish peroxidase (HRP) (Sigma-Aldrich) and the specific substrate was added to each sample. The relative fluorescence units (RFU) were then measured every 2.5 min for 30 min at 37 °C, excitation 565 nm and emission 590, on a BMG Clariostar Microplate Reader. All the substrates were used at concentrations corresponding to their Km towards the corresponding enzyme, or with a range of different concentrations for the substrate competition experiments.
Lysyl oxidases assay buffer contained 1.2 M urea, 50 mM sodium borate buffer, pH 8.2 and 100 µM β-aminoproprionitrile (BAPN, Sigma-Aldrich) was used for low control.
Recombinant human LOXL1 was expressed and purified from cDNA (GeneArt) and 10 mM putrescine was used as substrate. Recombinant human and mouse LOXL2 (R&D Systems) were challenged with 5 mM putrescine (Sigma-Aldrich) as the substrate. Rat and dog recombinant LOXL2 were amplified and purified in house from HEK-293 clones kindly provided by Dr. Fernando Rodríguez Pascual, Madrid University, and used in the same conditions as for the human form. 2 mM putrescine was used as the substrate for recombinant human LOXL3 (R&D Systems) and LOXL4 (Dr. Fernando Rodríguez Pascual, university of Madrid, Spain) assays.

Human Recombinant MAO-B = biological target: T3, Human Recombinant MAO-B (Homo sapiens, UniProt P27338); test: Amine oxidase inhibition profile, MAO-B
T3 sequence (P27338 1-520): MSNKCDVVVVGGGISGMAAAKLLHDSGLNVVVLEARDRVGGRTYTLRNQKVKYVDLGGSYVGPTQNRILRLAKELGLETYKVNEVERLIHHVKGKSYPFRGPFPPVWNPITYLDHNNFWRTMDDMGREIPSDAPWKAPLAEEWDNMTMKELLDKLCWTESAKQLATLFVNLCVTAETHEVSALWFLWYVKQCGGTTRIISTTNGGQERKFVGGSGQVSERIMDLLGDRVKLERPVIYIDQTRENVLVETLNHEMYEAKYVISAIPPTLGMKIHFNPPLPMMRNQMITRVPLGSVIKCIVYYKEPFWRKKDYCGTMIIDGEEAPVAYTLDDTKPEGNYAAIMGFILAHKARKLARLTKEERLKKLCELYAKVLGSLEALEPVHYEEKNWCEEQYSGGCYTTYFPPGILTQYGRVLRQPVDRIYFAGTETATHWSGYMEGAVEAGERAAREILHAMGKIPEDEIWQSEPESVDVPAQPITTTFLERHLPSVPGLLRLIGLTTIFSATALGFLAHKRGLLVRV
From the text: Supplem entary Materi als:
Supplementary Table S1: Amine oxidase inhibition profile of PXS -4787, PXS-6302 and
Supplementary Table S2: Perm eability profile of PXS -6302.

[1] = 30 min pre-incubation, read-out: LOXL2 IC50
[2] = read-out: Recombinant MAO-B IC50

Structure (SMILES) | Dog Recombinant LOXL2 pIC50±SD (Dog Recombinant LOXL2) | IC50 (Dog Recombinant LOXL2) [nM] | Human Recombinant LOXL2 pIC50±SD (Human recombinant LOXL2) | IC50 (Human recombinant LOXL2; [1]) [nM] | Recombinant MAO-B pIC50 (Human Recombinant MAO-B) | IC50 (Human Recombinant MAO-B; [2]) [nM] | inhibition at 30 µM (Human recombinant LOXL2; log conc -4.5229, read-out: Fig 2A inhibition (mean)) [%] | inhibition at 10 µM (Human recombinant LOXL2; log conc -5, read-out: Fig 2A inhibition (mean)) [%] | inhibition at 3.333 µM (Human recombinant LOXL2; log conc -5.4771, read-out: Fig 2A inhibition (mean)) [%] | inhibition at 1.111 µM (Human recombinant LOXL2; log conc -5.9542, read-out: Fig 2A inhibition (mean)) [%] | inhibition at 0.3704 µM (Human recombinant LOXL2; log conc -6.4313, read-out: Fig 2A inhibition (mean)) [%] | inhibition at 0.1235 µM (Human recombinant LOXL2; log conc -6.9083, read-out: Fig 2A inhibition (mean)) [%] | inhibition at 0.0412 µM (Human recombinant LOXL2; log conc -7.3851, read-out: Fig 2A inhibition (mean)) [%] | inhibition at 0.0137 µM (Human recombinant LOXL2; log conc -7.8633, read-out: Fig 2A inhibition (mean)) [%] | inhibition at 0.0046 µM (Human recombinant LOXL2; log conc -8.3372, read-out: Fig 2A inhibition (mean)) [%] | inhibition at […] (Human recombinant LOXL2; log conc -8.8239, read-out: Fig 2A inhibition (mean)) [%] | inhibition at 0.0005 µM (Human recombinant LOXL2; log conc -9.301, read-out: Fig 2A inhibition (mean)) [%] | IC50 (Human recombinant LOXL2; read-out: Human Recombinant LOXL2 pIC50±SD (converted)) [nM] | IC50 (Human Recombinant MAO-B) [nM]
N#CCCN [BAPN, β-aminoproprionitrile, reference compound] | 6.3 ± 0.1 | 480 | 6.4 ± 0.1 | 390 | < 4 | > 100000 | – | – | – | – | – | – | – | – | – | – | – | – | –
NC/C=C(\F)CS(=O)(=O)c1ccccc1 [PXS-4787] | – | 620 | – | 600 | – | > 100000 | 98.4 | 95.6 | 87.6 | 67.7 | 40.3 | 18.8 | 9.34 | 2.56 | 0.119 | -0.297 | -1.19 | 631 | –
NC/C=C(\F)C(F)(F)S(=O)(=O)c1ccccc1 [PXS-6302] | – | 340 | 6.4 ± 0.2 | 430 | – | – | – | – | – | – | – | – | – | – | – | – | – | – | > 30000
